{
  "source": "patent US9498533B2",
  "about": "“Drug delivery compositions and methods” (Board of Regents of the University of Nebraska, priority 2011, dated 2016)",
  "key": {"[1]": {"tested_on": "breast cancer cells that overexpress HER2", "assay": "HER2 expression and Akt activation in breast cancer cells", "type": "cell-based"}, "[2]": {"tested_on": "MCF-7 human breast cancer cells", "assay": "In vitro cytotoxicity, MTT assay", "type": "cell-based", "settings": "n = 4", "experimental": "Cytotoxicity of DOX-loaded cl-micelles was assessed in MCF-7 cells by a standard MTT assay as described (Kim et al. (2009) J. Control Release, 138:197-204). Briefly, cells were seeded in a 96-well microtiter plates with 5,000 cells per well and allowed to adhere for 24 hours prior to the assay. Cells were exposed to various doses (0-50 μg/ml on DOX basis) of DOX alone, polymer micelles alone, and DOX-loaded cl-micelles for 24 hours at 37° C., followed by washing with PBS, and maintaining in DMEM medium with 10% FBS for additional 72 hours. 25 μl of MTT indicator dye (5 mg/ml) was added to each well and the cells were incubated for 2 hours at 37° C. in the dark. 100 μl of 50% DMF-20% SDS solution was added to each well and kept overnight at 37° C. Absorption was measured at 570 nm in a microplate reader (SpectraMax® M5, Molecular Devices Co., USA) using wells without cells as blanks. […]"}, "[3]": {"settings": "carboxylic groups; cited from earlier work"}},
  "data": [
    {"smiles": "C=CCNC1=C2C[C@@H](C)C[C@H](OC)[C@H](O)[C@@H](C)/C=C(\\C)[C@H](OC(N)=O)[C@@H](OC)/C=C\\C=C(/C)C(=O)NC(=CC1=O)C2=O", "note": "[17-AAG, 17-N-allylamino-17-demethoxygeldanamycin]", "values": [
      {"measurement": "Akt activation", "setting": "[1]", "result": "inhibited Ala activation"},
      {"measurement": "HER2 expression", "setting": "[1]", "result": "downregulation of HER2 expression"}
    ]},
    {"smiles": "COc1cccc2c1C(=O)c1c(O)c3c(c(O)c1C2=O)C[C@@](O)(C(=O)CO)C[C@@H]3O[C@H]1C[C@H](N)[C@H](O)[C@H](C)O1.Cl", "note": "[Free DOX, Doxorubicin hydrochloride]", "values": [
      {"measurement": "IC50 (DOX equivalents)", "setting": "[2]; MCF-7, 6 hours incubation", "result": "0.283 ± 0.049", "unit": "µg/mL"},
      {"measurement": "IC50 (DOX equivalents)", "setting": "[2]; MCF-7, 24 hours incubation", "result": "0.046 ± 0.021", "unit": "µg/mL"}
    ]},
    {"smiles": "N[C@@H](CCC(=O)O)C(=O)O", "note": "[glutamic acid]", "values": [
      {"measurement": "pKa", "setting": "[3]", "result": "ca. 4.4"}
    ]}
  ]
}
